Experiment: pKa values of the azo dyes
Type: physicochemical
Details: azo dye
Description: Thus, in the hair dye composition of the present invention having pH (25° C.) of 7.5 to 12, almost 80% or more of these azo dyes are present in an anionic state where a proton(s) is dissociated.

Compound | pKa
CSc1nsc(/N=N/c2ccc(O)c(Cl)c2)n1 [Example A-1] | 6
NS(=O)(=O)c1ccc2nsc(/N=N/c3ccc(O)c(Cl)c3)c2c1 [Example A-2] | 6
Cn1nccc1/N=N/c1ccc(O)c(Cl)c1 [Example A-3] | 7.5
